In patent US10251843B2, “Crosslinked nanoparticle composition” (priority 2015, dated 2019):

Columns and labels:
[1] = In vivo pharmacokinetics, serum amoxicillin after oral gavage; conditions: ICR mice
Description: The experiments were performed on male and female ICR mice (6-8 weeks) to evaluate the amoxicillin concentration in serum. […] Each testing group contained 10 mice (five male and five female). The concentration of amoxicillin in each collected serum sample was determined by HPLC.

[2] = mice, reported; cited from earlier work

For `CC1(C)S[C@@H]2[C@H](NC(=O)[C@H](N)c3ccc(O)cc3)C(=O)N2[C@H]1C(=O)O.O.O.O` [free amoxicillin, (2S,5R,6R)-6-[(R)-(−)-2-amino-2-(p-hydroxyphenyl)acetamido]-3,3-dimethyl-7-oxo-4-thia-1-azabicyclo[3.2.0]heptane-2-carboxylic acid trihydrate], the “time at which serum concentration of amoxicillin peaked” value ([1]; 2 mg amoxicillin) was 15 min, the “serum concentration as % of the peak value” ([1]; after 1 hour) was “below 50%” and the “serum concentration as % of the peak value” ([1]; after 2 hours) was “below 20%”. For the same compound, the “area under the curve (total measured amount of drug in the circulation)” value ([1]; compared with the nanoparticle formulation) was “smaller area” and the “plasma half-life of amoxicillin” value [2] was “about 40 minutes”.
